Converted amounts (≈) assume the structure as drawn. Where two headings read alike, the source gives them in different places.
How the values were obtained:
Bifidobacterium bifidum = test: In vitro MIC testing against anaerobic bacteria; assay type: cell-based; details: ATCC15696; Bifidobacterium bifidum 3965, ATCC 15696
Bifidobacterium brevi = test: In vitro MIC testing against anaerobic bacteria; assay type: cell-based; details: ATCC15698; Bifidobacterium brevi 3967, ATCC 15698
Bifidobacterium longum = test: In vitro MIC testing against anaerobic bacteria; assay type: cell-based; details: ATCC15707; Bifidobacterium longum 3968, ATCC 15707
Clostridium perfringens = test: microbe, parasite or virus in culture; assay type: cell-based
Clostridium difficile = test: In vitro MIC testing against anaerobic bacteria; assay type: cell-based
[1] = system: Lactobacillus acidophilus; test: In vitro MIC testing against anaerobic bacteria; assay type: cell-based; details: Lactobacillus acidophilus 0681
Lactobacillus casei = test: In vitro MIC testing against anaerobic bacteria; assay type: cell-based; details: Lacticaseibacillus casei, ATCC393; Lactobacillus casei 1722, ATCC 393
[2] = system: Peptostreptococcus anaerobius; test: In vitro MIC testing against anaerobic bacteria; assay type: cell-based
[3] = system: Peptostreptococcus micros; test: In vitro MIC testing against anaerobic bacteria; assay type: cell-based; details: Parvimonas micra
Propionibacterium acnes = test: In vitro MIC testing against anaerobic bacteria; assay type: cell-based; details: Cutibacterium acnes
[4] = system: Streptococcus intermedius; test: In vitro MIC testing against anaerobic bacteria; assay type: cell-based; details: ATCC27335; Streptococcus intermedius 1203, ATCC 27335
Bacteroides fragilis = test: In vitro MIC testing against anaerobic bacteria; assay type: cell-based
[5] = system: Bacteroides thetaiotaomicron; test: In vitro MIC testing against anaerobic bacteria; assay type: cell-based
[6] = system: Fusobacterium necrophorum; test: In vitro MIC testing against anaerobic bacteria; assay type: cell-based; details: Fusobacterium necrophorum, ATCC25286
Fusobacterium nucleatum = test: In vitro MIC testing against anaerobic bacteria; assay type: cell-based; details: Fusobacterium nucleatum, ATCC25586
[7] = system: Porphyromonas asaccharolytica; test: In vitro MIC testing against anaerobic bacteria; assay type: cell-based
[8] = system: Prevotella melaninogenica; test: In vitro MIC testing against anaerobic bacteria; assay type: cell-based
Veillonella parvula = test: In vitro MIC testing against anaerobic bacteria; assay type: cell-based; details: ATCC17745; Veillonella parvula 1272, ATCC 17745
P. granulosum = test: In vitro MIC testing, antibacterial spectrum of activity; assay type: cell-based; details: P. granulosum [clinical isolates] (3 isolates)
P. avidum = test: as above; assay type: cell-based; details: P. avidum [clinical isolates] (4 isolates)
S. epidermidis = test: as above; assay type: cell-based, Staphylococcus epidermidis; details: for MIC50 / MIC90: Staphylococcus epidermidis; for MIC50: read-out: MIC50; for MIC90: read-out: MIC90
S. pneumoniae = test: as above; assay type: cell-based, Streptococcus pneumoniae
S. pyogenes = test: as above; assay type: cell-based
[9] = S. epidermidis [MRSE] (32 isolates)
[10] = S. epidermidis [MSSE] (31 isolates)

CON(C)Cc1ccc(O)c2c1C[C@H]1C[C@H]3[C@H](N(C)C)C(O)=C(C(N)=O)C(=O)[C@@]3(O)C(O)=C1C2=O [The Active, (4S,4aS,5aR,12aS)-4-dimethylamino-3,10,12,12a-tetrahydroxy-7-[(methoxy(methyl)amino)-methyl]-1,11-dioxo-1,4,4a,5,5a,6,11,12a-octahydro-naphthacene-2-carboxylic acid amide]
MIC (Bifidobacterium bifidum): 1 µg/mL (≈ 2.05 µM) | MIC (Bifidobacterium brevi): 1 µg/mL (≈ 2.05 µM) | MIC (Bifidobacterium longum): 4 µg/mL (≈ 8.2 µM) | MIC (Clostridium perfringens): 16 µg/mL (≈ 32.8 µM) | MIC (Clostridium perfringens; read-out: MIC, high MIC values): > 16 µg/mL | MIC (Clostridium difficile; Clostridioides difficile): 0.12 µg/mL (≈ 0.246 µM) | MIC (Clostridium difficile; Clostridium difficile 3584): 0.12 µg/mL (≈ 0.246 µM) | MIC [1]: 4 µg/mL (≈ 8.2 µM) | MIC (Lactobacillus casei): 2 µg/mL (≈ 4.1 µM) | MIC ([2]; Peptostreptococcus anaerobius 3526): 2 µg/mL (≈ 4.1 µM) | MIC ([2]; Peptostreptococcus anaerobius 3531): 4 µg/mL (≈ 8.2 µM) | MIC [3]: 0.25 µg/mL (≈ 0.513 µM) | MIC ([3]; Peptostreptococcus micros 3545, read-out: MIC): 1 µg/mL (≈ 2.05 µM) | MIC (Propionibacterium acnes): 0.25 µg/mL (≈ 0.513 µM) | MIC (Propionibacterium acnes; ATCC11829, Propionibacterium acnes 1286, ATCC 11829, read-out: MIC): 1 µg/mL (≈ 2.05 µM) | MIC (Propionibacterium acnes; P. acnes, summary of Table 1, read-out: minimum inhibitory concentration (MIC), relatively potent activity): ≤ 4 µg/mL | MIC [4]: 1 µg/mL (≈ 2.05 µM) | MIC (Bacteroides fragilis; Bacteroides fragilis 3374): 0.12 µg/mL (≈ 0.246 µM) | MIC (Bacteroides fragilis; Bacteroides fragilis 3479): 16 µg/mL (≈ 32.8 µM) | MIC ([5]; Bacteroides thetaiotaomicron 3399): 0.25 µg/mL (≈ 0.513 µM) | MIC ([5]; Bacteroides thetaiotaomicron 3496): 16 µg/mL (≈ 32.8 µM) | MIC [6]: 0.25 µg/mL (≈ 0.513 µM) | MIC (Fusobacterium nucleatum): 0.25 µg/mL (≈ 0.513 µM) | MIC [7]: 16 µg/mL (≈ 32.8 µM) | MIC ([7]; Porphyromonas asaccharolytica 3557, read-out: MIC): 8 µg/mL (≈ 16.4 µM) | MIC ([8]; Prevotella melaninogenica 3437, read-out: MIC): 32 µg/mL (≈ 65.6 µM) | MIC ([8]; Prevotella melaninogenica 3443, read-out: MIC): 4 µg/mL (≈ 8.2 µM) | MIC (Veillonella parvula): 4 µg/mL (≈ 8.2 µM) | MIC Range (P. granulosum): 1-1 μg/mL | MIC Range (P. avidum): 1 to 4 µg/mL | MIC Range (S. epidermidis; [9]): 0.25 to 2 µg/mL | MIC Range (S. epidermidis; [10]): 0.12 to 2 µg/mL | MIC50 (S. epidermidis; [9]): 0.5 µg/mL (≈ 1.03 µM) | MIC90 (S. epidermidis; [9]): 2 µg/mL (≈ 4.1 µM) | MIC50 (S. epidermidis; [10]): 0.25 µg/mL (≈ 0.513 µM) | MIC90 (S. epidermidis; [10]): 2 µg/mL (≈ 4.1 µM) | MIC Range (S. pneumoniae; S. pneumoniae [PSSP] (32 isolates)): ≦0.03-32 μg/mL | MIC Range (S. pneumoniae; S. pneumoniae [tetR] (5 isolates)): 4 to 32 µg/mL | MIC Range (S. pneumoniae; S. pneumoniae [tetS] (5 isolates)): ≦0.06-0.125 μg/mL | MIC50 (S. pneumoniae; Streptococcus pneumoniae, S. pneumoniae [PSSP] (32 isolates), read-out: MIC50): 0.12 µg/mL (≈ 0.246 µM) | MIC90 (S. pneumoniae; Streptococcus pneumoniae, S. pneumoniae [PSSP] (32 isolates), read-out: MIC90): 0.25 µg/mL (≈ 0.513 µM) | MIC (S. pneumoniae; Streptococcus pneumoniae, S. pneumoniae strain PBS # 511, tetM): 4 µg/mL (≈ 8.2 µM) | MIC Range (S. pyogenes; S. pyogenes (32 isolates)): 0.12 to 16 µg/mL | MIC Range (S. pyogenes; S. pyogenes [tetR] (5 isolates)): 4 to 16 µg/mL
